Data set [1] deals with Glutamate receptor ionotropic AMPA (Homo sapiens) (UniProt P48058+P42263+P42262+P42261). Description: Inhibition of AMPA receptor at 10 uM. The class given is protein-complex assay.
In data set [2] the target is Glutamate receptor ionotropic kainate (Homo sapiens) (UniProt P39086+Q16478+Q16099+Q13002+Q13003). Description: Inhibition of kainate receptor at 1 nM. Format: protein-complex assay.
The target of data set [3] is T1, monoamine oxidase B (MAO-B) (Rattus norvegicus, UniProt P19643).
T1 sequence (P19643 whole entry): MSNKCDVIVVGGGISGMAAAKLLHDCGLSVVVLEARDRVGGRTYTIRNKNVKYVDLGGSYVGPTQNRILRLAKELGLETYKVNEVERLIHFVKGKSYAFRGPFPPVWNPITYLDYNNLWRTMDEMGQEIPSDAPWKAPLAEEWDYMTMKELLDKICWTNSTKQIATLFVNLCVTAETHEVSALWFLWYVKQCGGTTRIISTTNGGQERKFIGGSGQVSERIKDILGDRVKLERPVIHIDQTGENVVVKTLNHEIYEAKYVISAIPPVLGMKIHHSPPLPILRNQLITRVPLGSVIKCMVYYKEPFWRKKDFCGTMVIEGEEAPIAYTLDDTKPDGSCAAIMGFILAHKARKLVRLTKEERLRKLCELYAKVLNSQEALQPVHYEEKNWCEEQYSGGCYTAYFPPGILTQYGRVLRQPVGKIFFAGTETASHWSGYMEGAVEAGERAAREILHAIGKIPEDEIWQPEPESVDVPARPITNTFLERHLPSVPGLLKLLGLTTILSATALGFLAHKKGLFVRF
As to the kind of experiment: Inhibition of monoamine oxidase B in rat brain at 10 uM. The class given is tissue-based.

For data set [4], the target named is Estrogen receptor (Homo sapiens) (UniProt Q92731+P03372). Description: Inhibition of estrogen receptor at 1 nM. Format: protein assay.
The target in data set [5] is T2, Androgen receptor (Homo sapiens) (UniProt P10275).
T2 sequence (whole entry): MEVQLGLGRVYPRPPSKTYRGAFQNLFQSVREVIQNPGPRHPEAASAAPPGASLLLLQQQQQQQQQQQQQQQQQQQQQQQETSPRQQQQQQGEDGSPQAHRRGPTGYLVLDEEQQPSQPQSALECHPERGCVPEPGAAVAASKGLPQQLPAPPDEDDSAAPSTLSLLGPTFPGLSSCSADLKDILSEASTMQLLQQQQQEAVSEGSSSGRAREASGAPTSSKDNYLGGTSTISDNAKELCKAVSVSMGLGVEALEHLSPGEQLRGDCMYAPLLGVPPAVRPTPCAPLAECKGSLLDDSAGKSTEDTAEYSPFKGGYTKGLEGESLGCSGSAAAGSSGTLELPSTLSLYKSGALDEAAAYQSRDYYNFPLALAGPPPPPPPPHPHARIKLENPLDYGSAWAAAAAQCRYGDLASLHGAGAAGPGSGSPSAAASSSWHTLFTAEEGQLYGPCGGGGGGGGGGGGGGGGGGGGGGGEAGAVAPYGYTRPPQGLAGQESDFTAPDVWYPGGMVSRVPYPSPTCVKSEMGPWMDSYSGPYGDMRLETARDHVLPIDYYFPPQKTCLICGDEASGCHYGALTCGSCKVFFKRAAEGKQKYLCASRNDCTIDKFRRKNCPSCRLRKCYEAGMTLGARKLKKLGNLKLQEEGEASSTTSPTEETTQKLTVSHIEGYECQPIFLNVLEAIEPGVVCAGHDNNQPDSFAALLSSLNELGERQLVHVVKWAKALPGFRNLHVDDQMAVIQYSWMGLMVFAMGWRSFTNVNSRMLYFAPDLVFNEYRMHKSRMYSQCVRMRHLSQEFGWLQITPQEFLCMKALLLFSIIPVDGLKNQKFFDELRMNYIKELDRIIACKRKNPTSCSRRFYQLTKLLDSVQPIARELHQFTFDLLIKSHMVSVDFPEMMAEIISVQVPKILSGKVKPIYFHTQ
As to the kind of experiment: Inhibition of testosterone receptor at 100 nM.

The target of data set [6] is Protein kinase C, PKC; classical/novel (Homo sapiens) (UniProt O94806+P17252+P05129+Q05655+P05771+Q02156+P24723+Q15139+Q04759). As to the kind of experiment: Inhibition of PDBu activated protein kinase C at 1 nM. Format: protein assay.
Data set [7] addresses T3, Cysteinyl leukotriene receptor 1 (Homo sapiens) (UniProt Q9Y271).
T3 sequence (whole entry): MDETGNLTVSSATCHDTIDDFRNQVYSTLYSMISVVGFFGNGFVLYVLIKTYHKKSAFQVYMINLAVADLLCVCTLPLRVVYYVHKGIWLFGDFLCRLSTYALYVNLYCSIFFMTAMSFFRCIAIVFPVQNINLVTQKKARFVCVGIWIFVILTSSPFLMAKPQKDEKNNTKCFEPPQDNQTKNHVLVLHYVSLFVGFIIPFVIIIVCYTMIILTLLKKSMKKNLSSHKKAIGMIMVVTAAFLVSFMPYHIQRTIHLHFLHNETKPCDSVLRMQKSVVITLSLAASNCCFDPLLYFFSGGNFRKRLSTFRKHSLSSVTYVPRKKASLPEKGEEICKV
As to the kind of experiment: Inhibition of leukotriene D4 at 1 nM.

In data set [8] the target is T3, Cysteinyl leukotriene receptor 1 (Homo sapiens). As to the kind of experiment: Inhibition of leukotriene D4 at 10 uM.
For another data set, the system named is MDR1 (P-gp). Description: Permeability from basolateral to apical side of the MDCK cell transfected with human MDR1. Format: ADME, cell-based.
Data set [9] addresses 5-hydroxytryptamine receptor 1B (Homo sapiens, UniProt P28222). As to the kind of experiment: Inhibitory activity against 5HT1B receptor.
Data set [10] addresses 5-hydroxytryptamine receptor 5A (Homo sapiens, UniProt P47898). As to the kind of experiment: Inhibitory activity against 5HT5A receptor.
The target of data set [11] is T4, Alpha-2A adrenergic receptor (Homo sapiens, UniProt P08913).
T4 sequence (P08913 whole entry): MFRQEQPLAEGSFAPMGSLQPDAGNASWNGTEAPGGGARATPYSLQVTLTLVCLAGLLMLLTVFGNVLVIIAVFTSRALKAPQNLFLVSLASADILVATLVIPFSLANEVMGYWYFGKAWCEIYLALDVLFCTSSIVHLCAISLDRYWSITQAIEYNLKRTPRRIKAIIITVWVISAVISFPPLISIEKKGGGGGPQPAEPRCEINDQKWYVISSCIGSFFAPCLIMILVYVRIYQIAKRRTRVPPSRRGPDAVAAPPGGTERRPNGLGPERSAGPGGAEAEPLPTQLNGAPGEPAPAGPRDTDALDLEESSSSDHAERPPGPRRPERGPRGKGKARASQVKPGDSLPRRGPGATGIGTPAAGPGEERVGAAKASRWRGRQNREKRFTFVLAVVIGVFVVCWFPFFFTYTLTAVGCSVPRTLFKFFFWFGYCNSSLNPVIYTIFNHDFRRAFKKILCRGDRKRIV
As to the kind of experiment: Displacement of [3H]clonidine from cloned human adrenergic alpha2A receptor expressed in Sf9 cells. For orientation: Displacement assays read how much labelled ligand stays bound in the presence of the test substance.

Data set [12] addresses Sodium-dependent noradrenaline transporter (Homo sapiens, UniProt P23975). Description: Inhibitory activity against NET.
Data set [13] concerns the target Adrenergic receptor beta (Homo sapiens) (UniProt P08588+P07550+P13945). Description: Inhibition of non selective binding to adrenergic beta receptor at 1 nM. The class given is protein assay.

5-hydroxytryptamine receptor 5A, sequence (P47898 whole entry): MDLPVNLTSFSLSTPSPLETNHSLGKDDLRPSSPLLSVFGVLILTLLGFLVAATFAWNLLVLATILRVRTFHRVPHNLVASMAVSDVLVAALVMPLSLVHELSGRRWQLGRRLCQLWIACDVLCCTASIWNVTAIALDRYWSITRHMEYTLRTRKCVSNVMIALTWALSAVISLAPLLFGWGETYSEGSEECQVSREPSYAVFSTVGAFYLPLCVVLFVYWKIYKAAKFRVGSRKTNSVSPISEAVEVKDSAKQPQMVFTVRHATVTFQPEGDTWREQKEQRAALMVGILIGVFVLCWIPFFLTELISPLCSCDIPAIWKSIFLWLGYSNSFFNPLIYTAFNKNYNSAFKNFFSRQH
Sodium-dependent noradrenaline transporter, sequence (P23975 whole entry): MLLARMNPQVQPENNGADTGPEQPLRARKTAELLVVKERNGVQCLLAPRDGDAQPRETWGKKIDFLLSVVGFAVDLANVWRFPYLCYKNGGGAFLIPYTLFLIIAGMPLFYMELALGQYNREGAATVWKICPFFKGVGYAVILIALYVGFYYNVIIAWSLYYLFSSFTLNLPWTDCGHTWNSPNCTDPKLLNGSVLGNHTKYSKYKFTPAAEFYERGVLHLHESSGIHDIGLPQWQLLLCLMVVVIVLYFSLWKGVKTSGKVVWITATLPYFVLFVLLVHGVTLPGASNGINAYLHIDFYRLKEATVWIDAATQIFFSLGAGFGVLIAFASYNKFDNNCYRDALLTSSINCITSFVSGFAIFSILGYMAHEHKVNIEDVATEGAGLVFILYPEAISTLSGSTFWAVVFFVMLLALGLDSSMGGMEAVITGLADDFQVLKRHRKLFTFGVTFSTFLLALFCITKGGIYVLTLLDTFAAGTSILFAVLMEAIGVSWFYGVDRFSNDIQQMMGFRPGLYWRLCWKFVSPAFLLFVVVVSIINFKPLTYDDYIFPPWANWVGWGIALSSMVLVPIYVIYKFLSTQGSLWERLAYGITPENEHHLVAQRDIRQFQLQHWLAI
5-hydroxytryptamine receptor 1B, sequence (P28222 whole entry): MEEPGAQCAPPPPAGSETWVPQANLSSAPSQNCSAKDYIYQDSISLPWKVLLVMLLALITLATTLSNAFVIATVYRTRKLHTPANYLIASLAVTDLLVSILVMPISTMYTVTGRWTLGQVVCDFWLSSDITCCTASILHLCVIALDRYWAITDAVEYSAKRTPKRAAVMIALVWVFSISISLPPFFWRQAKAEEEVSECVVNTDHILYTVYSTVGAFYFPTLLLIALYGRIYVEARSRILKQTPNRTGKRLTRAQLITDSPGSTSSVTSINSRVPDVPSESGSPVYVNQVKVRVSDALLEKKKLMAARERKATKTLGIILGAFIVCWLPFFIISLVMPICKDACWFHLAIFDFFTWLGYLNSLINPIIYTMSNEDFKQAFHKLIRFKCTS

For the compound `C[C@H](N)Cn1ncc2ccc(O)cc21`, the inhibition turned out to be 7.62% in [1]; 12% in [2]; 10.8% in [4]; 0.86% in data set [5]; 12.6% in data set [6]; 2.65% in data set [7]. Also, the inhibition was 0.07% in [8] and -5.75% in data set [13]. Also, the inhibition at 10 µM in data set [3] is -18.4%. Moreover, in the data set on MDR1 (P-gp), the Papp B→A was found to be 0.88 ×10⁻⁶ cm/s. In addition, the inhibition constant (Ki) is over 10 µM in [9], over 10 µM in data set [10], 2.27 µM in data set [11] and over 10 µM in data set [12].

As a reminder, the inhibition is the drop in the measured response relative to a control, in per cent. One may read the Papp B→A as the apparent permeability from the basolateral to the apical side of a cell layer. Broadly, the Ki is the dissociation constant of the complex between target and ligand, obtained from inhibition or displacement.
